Measurements from patent US20230242669A1, “ANTIBODY THAT BINDS ERBB-2 AND ERBB-3” (Merus N.V., priority 2014, published 2023).

Tested on: HER2 overexpressing cells (SK-BR-3, BT-474, N87)
Test: Drug combinations with PB4188 in vitro (checkerboard, isobolograms)
Format: cell-based, human
Details: HER2 amplified cells, HRG
Description: Moreover, combination with chemotherapeutic drugs and cyclin inhibitors were tested. Combinations were tested on HER2 overexpressing cells growing in the presence of HRG in […]® (SK-BR-3 and BT-474) or in the presence of HRG stress concentrations (N87 and SK-BR-3 as described in proliferation assays). The inhibitory effect of drug combinations was tested by imaging or by measuring proliferation using Alamar Blue as described herein before. […] The extent of growth inhibition obtained with each combination was calculated. […] The inhibition values of the combination experiments were used by CHALICE™ Analyzer software to generate the isobolograms.

| SMILES | Drug combination with PB4188 (isobologram analysis) |
| --- | --- |
| Cc1nc(NC(=O)N2CCC[C@H]2C(N)=O)sc1-c1ccnc(C(C)(C)C(F)(F)F)c1 [BYL719] | synergistic |
| NC1(c2ccc(-c3nc4ccn5c(=O)[nH]nc5c4cc3-c3ccccc3)cc2)CCC1 [MK-2206] | synergistic |
| CO[C@H]1C[C@@H]2CC[C@@H](C)[C@@](O)(O2)C(=O)C(=O)N2CCCC[C@H]2C(=O)O[C@H]([C@H](C)C[C@@H]2CC[C@@H](OCCO)[C@H](OC)C2)CC(=O)[C@H](C)/C=C(\C)[C@@H](O)[C@@H](OC)C(=O)[C@H](C)C[C@H](C)/C=C/C=C/C=C/1C [everolimus] | synergistic |
| CS(=O)(=O)CCNCc1ccc(-c2ccc3ncnc(Nc4ccc(OCc5cccc(F)c5)c(Cl)c4)c3c2)o1 [lapatinib] | synergistic |
| CCOc1cc2ncc(C#N)c(Nc3ccc(OCc4ccccn4)c(Cl)c3)c2cc1NC(=O)/C=C/CN(C)C [neratinib] | synergistic |
| CC(=O)O[C@H]1C(=O)[C@@]2(C)[C@H]([C@H](OC(=O)c3ccccc3)[C@]3(O)C[C@H](OC(=O)[C@H](O)[C@@H](NC(=O)c4ccccc4)c4ccccc4)C(C)=C1C3(C)C)[C@]1(OC(C)=O)CO[C@@H]1C[C@@H]2O [paclitaxel] | synergistic |
| O=C(CCCCCCC(=O)Nc1ccccc1)NO [vorinostat] | synergistic |
